In the NIST ThermoML archive (doi:10.1016/j.jct.2013.12.021):
Numbers after ± are expanded uncertainties.

Experiment: Boiling temperature at pressure P
Settings: 101.33 kPa; Liquid; Ebulliometric method (Recirculating still)

CO [methanol]
Boiling temperature at pressure P: 64.50 ± 0.1 °C
